Source: PubChem BioAssay AID2060599 (Molecular Pharmacology Branch, DTP, NCI, 2025)
Several values for one entry are separate records, joined by “and”; a condition that tells them apart may be missing. Identical values can stand only once.

Test system: 817829-284-R-J1-PDC complex spheroids, viability
Test: Anticancer human tumor 817829-284-R-J1-PDC patient-derived colon adenocarcinoma cell line growth inhibition [CLK]
Details: for viability, T/C: stronger effect = lower value
Outline: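 Multi-cell-type spheroids combined patient-derived tumor cells with HUVEC endothelial cells and human mesenchymal stem cells. Paired agents were dosed in half-log steps down from about clinical Cmax, or from 10 microM where Cmax was unknown.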

[1] = curve of first compound, second compound 0.0316 µM
[2] = curve of first compound, second compound 0.1 µM
[3] = curve of first compound, second compound 0.316 µM
[4] = curve of first compound, second compound 1 µM
[5] = curve of first compound, second compound 3.16 µM
[6] = curve of first compound, second compound 10 µM
[7] = second compound 0.0316 µM, first compound 0.0316 µM
[8] = second compound 0.0316 µM, first compound 0.1 µM
[9] = second compound 0.0316 µM, first compound 0.316 µM
[10] = second compound 0.0316 µM, first compound 1 µM
[11] = second compound 0.1 µM, first compound 0.0316 µM
[12] = second compound 0.1 µM, first compound 0.1 µM
[13] = second compound 0.1 µM, first compound 0.316 µM
[14] = second compound 0.1 µM, first compound 1 µM
[15] = second compound 0.316 µM, first compound 0.0316 µM
[16] = second compound 0.316 µM, first compound 0.1 µM
[17] = second compound 0.316 µM, first compound 0.316 µM
[18] = second compound 0.316 µM, first compound 1 µM
[19] = second compound 1 µM, first compound 0.0316 µM
[20] = second compound 1 µM, first compound 0.1 µM
[21] = second compound 1 µM, first compound 0.316 µM
[22] = second compound 1 µM, first compound 1 µM
[23] = second compound 3.16 µM, first compound 0.0316 µM
[24] = second compound 3.16 µM, first compound 0.1 µM
[25] = second compound 3.16 µM, first compound 0.316 µM
[26] = second compound 3.16 µM, first compound 1 µM
[27] = second compound 10 µM, first compound 0.0316 µM
[28] = second compound 10 µM, first compound 0.1 µM
[29] = second compound 10 µM, first compound 0.316 µM
[30] = second compound 10 µM, first compound 1 µM
[31] = second compound 0.0316 µM, first compound 3.16 µM
[32] = second compound 0.0316 µM, first compound 10 µM
[33] = second compound 0.1 µM, first compound 3.16 µM
[34] = second compound 0.1 µM, first compound 10 µM
[35] = second compound 0.316 µM, first compound 3.16 µM
[36] = second compound 0.316 µM, first compound 10 µM
[37] = second compound 1 µM, first compound 3.16 µM
[38] = second compound 1 µM, first compound 10 µM
[39] = second compound 3.16 µM, first compound 3.16 µM
[40] = second compound 3.16 µM, first compound 10 µM
[41] = second compound 10 µM, first compound 3.16 µM
[42] = second compound 10 µM, first compound 10 µM
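Further: spheroids exposed to the agents for seven days before readout.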

Question: What does the source list for COc1c(OCCCN2CCOCC2)ccc2c3n(c(=NC(=O)c4cnc(N)nc4)nc12)CCN3 + CN1CCN(c2cc(C(=O)Nc3cc4cc(-c5cnn(C)c5)ccc4cn3)ccn2)CC1?
Answer: IC50 [1]: 8.9 nM; IC50 [2]: < 3.16 nM; IC50 [3]: < 3.16 nM; IC50 [4]: < 3.16 nM; IC50 [5]: < 3.16 nM; IC50 [6]: < 3.16 nM; viability, T/C (second compound 0.0316 µM, first compound 0.00316 µM): 52.3%; viability, T/C (second compound 0.0316 µM, first compound 0.01 µM): 51.3%; viability, T/C [7]: 33.9%; viability, T/C [8]: 13.7%; viability, T/C [9]: 3.82%; viability, T/C [10]: 1.54%; viability, T/C (second compound 0.1 µM, first compound 0.00316 µM): 20.9%; viability, T/C (second compound 0.1 µM, first compound 0.01 µM): 17.7%; viability, T/C [11]: 11.5%; viability, T/C [12]: 6.91%; viability, T/C [13]: 1.95%; viability, T/C [14]: 1.19%; viability, T/C (second compound 0.316 µM, first compound 0.00316 µM): 1.52%; viability, T/C (second compound 0.316 µM, first compound 0.01 µM): 1.2%; viability, T/C [15]: 0.85%; viability, T/C [16]: 0.73%; viability, T/C [17]: 0.56%; viability, T/C [18]: 0.47%; viability, T/C (second compound 1 µM, first compound 0.00316 µM): 0.08%; viability, T/C (second compound 1 µM, first compound 0.01 µM): 0.11%; viability, T/C [19]: 0.12%; viability, T/C [20]: 0.12%; viability, T/C [21]: 0.11%; viability, T/C [22]: 0.34%; viability, T/C (second compound 3.16 µM, first compound 0.00316 µM): 0.17%; viability, T/C (second compound 3.16 µM, first compound 0.01 µM): 0.13%; viability, T/C [23]: 0.13%; viability, T/C [24]: 0.09%; viability, T/C [25]: 0.17%; viability, T/C [26]: 0.17%; viability, T/C (second compound 10 µM, first compound 0.00316 µM): 0.03%; viability, T/C (second compound 10 µM, first compound 0.01 µM): 0.06%; viability, T/C [27]: 0.1%; viability, T/C [28]: 0.56%; viability, T/C [29]: 0.13%; viability, T/C [30]: 0.12%

Question: With O=c1[nH]cc(F)c(=O)[nH]1 + CN1CCN(c2cc(C(=O)Nc3cc4cc(-c5cnn(C)c5)ccc4cn3)ccn2)CC1 as the compound, how does the IC50 [1] read?
Answer: 851 nM

Question: And the IC50 [2]?
Answer: < 31.6 nM

Question: And the IC50 [3]?
Answer: < 31.6 nM

Question: What about the IC50 [4] of the same compound?
Answer: < 31.6 nM

Question: What about the IC50 [5] of the same compound?
Answer: < 31.6 nM

Question: What about the IC50 [6] of the same compound?
Answer: < 31.6 nM

Question: And the viability, T/C [7]?
Answer: 72.7%

Question: What about the viability, T/C [8] of the same compound?
Answer: 66.3%

Question: What about the viability, T/C [9] of the same compound?
Answer: 57.1%

Question: What about the viability, T/C [10] of the same compound?
Answer: 52.4%

Question: What about the viability, T/C [31] of the same compound?
Answer: 33.8%

Question: What about the viability, T/C [32] of the same compound?
Answer: 26.3%

Question: What about the viability, T/C [11] of the same compound?
Answer: 18.2%

Question: And the viability, T/C [12]?
Answer: 17.6%

Question: What about the viability, T/C [13] of the same compound?
Answer: 22.3%

Question: And the viability, T/C [14]?
Answer: 20.8%

Question: And the viability, T/C [33]?
Answer: 18.9%

Question: What about the viability, T/C [34] of the same compound?
Answer: 15.9%

Question: What about the viability, T/C [15] of the same compound?
Answer: 2.25%

Question: And the viability, T/C [16]?
Answer: 2.52%

Question: What about the viability, T/C [17] of the same compound?
Answer: 1.94%

Question: What about the viability, T/C [18] of the same compound?
Answer: 2.49%

Question: And the viability, T/C [35]?
Answer: 2.36%

Question: And the viability, T/C [36]?
Answer: 2.06%

Question: What about the viability, T/C [19] of the same compound?
Answer: 0.14%

Question: What about the viability, T/C [20] of the same compound?
Answer: 0.12%

Question: And the viability, T/C [21]?
Answer: 0.18%

Question: And the viability, T/C [22]?
Answer: 0.07%

Question: What about the viability, T/C [37] of the same compound?
Answer: 0.07%

Question: And the viability, T/C [38]?
Answer: 0.05%

Question: And the viability, T/C [23]?
Answer: 0.14%

Question: What about the viability, T/C [24] of the same compound?
Answer: 0.11%

Question: And the viability, T/C [25]?
Answer: 0.11%

Question: What about the viability, T/C [26] of the same compound?
Answer: 0.1%

Question: What about the viability, T/C [39] of the same compound?
Answer: 0.15%

Question: And the viability, T/C [40]?
Answer: 0.14%

Question: And the viability, T/C [27]?
Answer: 0.07%

Question: What about the viability, T/C [28] of the same compound?
Answer: 0.08%

Question: And the viability, T/C [29]?
Answer: 0.1%

Question: And the viability, T/C [30]?
Answer: 0.11%

Question: What about the viability, T/C [41] of the same compound?
Answer: 0.13%

Question: And the viability, T/C [42]?
Answer: 0.08%

Question: With C#Cc1c(F)ccc2cc(O)cc(-c3ncc4c(N5CC6CCC(C5)N6)nc(OCC56CCCN5CC(F)C6)nc4c3F)c12 (stereo not drawn) as the compound, how does the viability, T/C (compound 0.0316 µM) read?
Answer: 126% and 105%

Question: What about the viability, T/C (compound 0.1 µM) of the same compound?
Answer: 74% and 131%

Question: And the viability, T/C (compound 0.316 µM)?
Answer: 116% and 80.9%

Question: What about the viability, T/C (compound 1 µM) of the same compound?
Answer: 81.9% and 122%

Question: And the viability, T/C (compound 3.16 µM)?
Answer: 60% and 100%

Question: What about the viability, T/C (compound 10 µM) of the same compound?
Answer: 62.3% and 79.4%

Question: What about the IC50 (curve of compound) of the same compound?
Answer: > 10000 nM

Question: Which IC50 [1] does the source give for CCCS(=O)(=O)Nc1ccc(F)c(C(=O)c2c[nH]c3ncc(-c4ccc(Cl)cc4)cc23)c1F + CN1CCN(c2cc(C(=O)Nc3cc4cc(-c5cnn(C)c5)ccc4cn3)ccn2)CC1 here?
Answer: < 31.6 nM

Question: And the IC50 [2]?
Answer: < 31.6 nM

Question: And the IC50 [3]?
Answer: < 31.6 nM

Question: And the IC50 [4]?
Answer: < 31.6 nM

Question: And the IC50 [5]?
Answer: < 31.6 nM

Question: And the IC50 [6]?
Answer: < 31.6 nM

Question: What about the viability, T/C [7] of the same compound?
Answer: 53.5%

Question: What about the viability, T/C [8] of the same compound?
Answer: 41.8%

Question: What about the viability, T/C [9] of the same compound?
Answer: 39.8%

Question: What about the viability, T/C [10] of the same compound?
Answer: 43.8%

Question: What about the viability, T/C [31] of the same compound?
Answer: 35.6%

Question: What about the viability, T/C [32] of the same compound?
Answer: 18.4%

Question: And the viability, T/C [11]?
Answer: 19%

Question: And the viability, T/C [12]?
Answer: 17.5%

Question: What about the viability, T/C [13] of the same compound?
Answer: 14.2%

Question: And the viability, T/C [14]?
Answer: 11.8%

Question: And the viability, T/C [33]?
Answer: 12.2%

Question: And the viability, T/C [34]?
Answer: 3.08%

Question: And the viability, T/C [15]?
Answer: 1.39%

Question: What about the viability, T/C [16] of the same compound?
Answer: 1.67%

Question: What about the viability, T/C [17] of the same compound?
Answer: 1.88%

Question: What about the viability, T/C [18] of the same compound?
Answer: 1.17%

Question: And the viability, T/C [35]?
Answer: 1.2%

Question: What about the viability, T/C [36] of the same compound?
Answer: 0.66%

Question: What about the viability, T/C [19] of the same compound?
Answer: 0.09%

Question: And the viability, T/C [20]?
Answer: 0.11%

Question: What about the viability, T/C [21] of the same compound?
Answer: 0.15%

Question: What about the viability, T/C [22] of the same compound?
Answer: 0.09%

Question: What about the viability, T/C [37] of the same compound?
Answer: 0.09%

Question: And the viability, T/C [38]?
Answer: 0.08%

Question: And the viability, T/C [23]?
Answer: 0.09%

Question: What about the viability, T/C [24] of the same compound?
Answer: 0.18%

Question: And the viability, T/C [25]?
Answer: 0.1%

Question: What about the viability, T/C [26] of the same compound?
Answer: 0.2%

Question: What about the viability, T/C [39] of the same compound?
Answer: 0.13%

Question: And the viability, T/C [40]?
Answer: 0.09%

Question: What about the viability, T/C [27] of the same compound?
Answer: 0.06%

Question: And the viability, T/C [28]?
Answer: 0.08%

Question: What about the viability, T/C [29] of the same compound?
Answer: 0.1%

Question: What about the viability, T/C [30] of the same compound?
Answer: 0.18%

Question: What about the viability, T/C [41] of the same compound?
Answer: 0.21%

Question: And the viability, T/C [42]?
Answer: 0.17%
